Values of other authors as cited in US20060292225A1, “WATER SOLUBLE ANALGESIC FORMULATIONS AND METHODS FOR PRODUCTION” (priority 2005, published 2006).
Read-outs that look alike come from different tables or passages of the source.

How the values were obtained:
[1] = system: arthritis inflammation
[2] = aqueous, hydrolysis

pH of maximum stability [2]: 2.4
Structure (SMILES): CC(=O)Oc1ccccc1C(=O)O [aspirin, Acetylsalicylic acid]
rate of successful treatment ([1]; daily dosage 2500 mg): less than 10% | rate of successful treatment ([1]; daily dosages of 4,000 to 5,000 mg or greater): over 70% | incidence of side effects (nausea, gastric upset, pain) (higher anti-inflammatory dosages): about 25% | incidence of side effects (nausea, gastric upset, pain) (low analgesic dose levels, adult users): 2-10%
